From patent publication US20030215462A1, “Use of UGT inhibitors to increase bioavailability” (priority 2001, published 2003)
Several values for one entry are separate records, joined by “and”; a condition that tells them apart may be missing. Equal entries are not always repeated. Where two headings read alike, the source gives them in different places.

Assays:
Type in all cases: biochemical
[1] = tested on: T1, UGT enzymes of human liver microsomes; assay: Inhibition of 7-HFC glucuronidation in human liver microsomes; settings: for % of control metabolism (SD, n = 3), 7-HFC glucuronidation: 7-HFC 50 μM, human liver microsomes 100 μg/ml, 15 min
T1 construct: percentage of control metabolism, 7-HFC glucuronidation; percentage of control metabolism, 7-HFC glucuronidation

[2] = tested on: UGT enzymes of human liver microsomes; assay: Inhibition of raloxifene glucuronidation (G1, G2) in human liver microsomes
Source text: Compounds were eluted using a binary solvent gradient system. […] Solvent B was methanol. […] Detection was at 280 nm.

[3] = molecular target: T2, UGT enzymes of human liver microsomes (Homo sapiens, UniProt P16662); assay: Inhibition of zidovudine glucuronidation in human liver microsomes; settings: liver lot 062101
T2 construct: residual metabolism (percentage of control), zidovudine glucuronidation; other: liver lot 062101; residual metabolism (percentage of control), zidovudine glucuronidation; residual metabolism (percentage of control)
T2 sequence (P16662 1-529): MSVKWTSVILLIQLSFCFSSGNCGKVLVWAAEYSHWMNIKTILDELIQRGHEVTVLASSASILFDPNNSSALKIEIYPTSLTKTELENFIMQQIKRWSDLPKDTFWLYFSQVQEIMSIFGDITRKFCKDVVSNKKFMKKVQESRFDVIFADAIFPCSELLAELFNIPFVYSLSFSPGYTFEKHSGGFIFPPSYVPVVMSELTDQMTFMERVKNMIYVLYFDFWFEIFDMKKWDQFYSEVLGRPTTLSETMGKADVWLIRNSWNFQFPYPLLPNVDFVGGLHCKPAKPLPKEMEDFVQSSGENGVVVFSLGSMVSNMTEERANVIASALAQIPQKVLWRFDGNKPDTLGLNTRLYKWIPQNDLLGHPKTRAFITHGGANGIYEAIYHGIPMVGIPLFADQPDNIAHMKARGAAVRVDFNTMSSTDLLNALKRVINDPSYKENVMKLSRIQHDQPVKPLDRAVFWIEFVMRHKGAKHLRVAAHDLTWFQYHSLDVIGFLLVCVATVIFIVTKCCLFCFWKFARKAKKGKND
Description: Compounds were eluted using a binary solvent gradient system where solvent A was dilute phosphoric acid (pH 3) and solvent B was acetonitrile.
Standardized incubations utilized 500 μM zidovudine substrate, 1 mg/ml microsomal protein, 5 mM UDPGA and a 30 min incubation time. […] Int.

[4] = tested on: T3, UGT enzymes of human liver microsomes; assay: Inhibition of 2ME2 glucuronidation (MG1, MG2) in human liver microsomes; settings: liver 062101, 2ME2 50 μM
T3 construct: other: liver 062101
Source text: (§1) Compounds were eluted using a binary solvent gradient system where solvent A was dilute phosphoric acid (pH 3) and solvent B was 80:20 acetonitrile-methanol. […] Detection was at 280 nm.

[5] = tested on: UGT enzymes of pooled human jejunum microsomes; assay: Inhibition of 2ME2 glucuronidation (MG1) in pooled human jejunum microsomes; settings: jejunum HJ61, 2ME2 50 μM
Source text: as §1

[6] = G1, inhibitor 100 μM, raloxifene 50 μM, human liver microsomes 250 μg/ml, 15 min
[7] = G1, inhibitor 500 μM, raloxifene 50 μM, human liver microsomes 250 μg/ml, 15 min
[8] = G2, inhibitor 100 μM, raloxifene 50 μM, human liver microsomes 250 μg/ml, 15 min
[9] = G2, inhibitor 500 μM, raloxifene 50 μM, human liver microsomes 250 μg/ml, 15 min

% of control metabolism (SD, n = 3), 7-HFC glucuronidation ([1]; inhibitor 500 μM) | residual metabolism (percentage of control), zidovudine glucuronidation ([3]; inhibitor 200 μM) | residual metabolism (percentage of control), zidovudine glucuronidation ([3]; inhibitor 500 μM) | Compound | percentage of control metabolism, 7-HFC glucuronidation ([1]; inhibitor 100 μM) | % of control metabolism (SD, n = 3), 7-HFC glucuronidation ([1]; inhibitor 100 μM) | percentage of control metabolism, 7-HFC glucuronidation ([1]; inhibitor 200 μM) | % of control metabolism (SD, n = 3), 7-HFC glucuronidation ([1]; inhibitor 200 μM) | percentage of control metabolism, 7-HFC glucuronidation ([1]; inhibitor 500 μM) | residual metabolism (percentage of control), zidovudine glucuronidation ([3]; inhibitor 1000 μM) | % of control metabolism (SD, n = 3), raloxifene glucuronide G1 [2, 6] | % of control metabolism (SD, n = 3), raloxifene glucuronide G1 [2, 7] | % of control metabolism (SD, n = 3), raloxifene glucuronide G2 [2, 8] | % of control metabolism (SD, n = 3), raloxifene glucuronide G2 [2, 9] | further results
33 (1) % |  | 68 (5) % | CCCCC/C=C\C/C=C\CCCCCCCC(=O)O [Linoleic acid] | 86 (3) % | 86 (3) % | 77 (4) % | 77 (4) % | 33 (1) % |  | 101 (8) % | 29 (0) % | 100 (4) % |  | 
80 (2) % | 24 (0) % | 29 (1) % and 24 (2) % | C[C@]12CC[C@@H]3c4ccc(O)cc4CC[C@H]3[C@@H]1CC[C@@H]2O [E2, 17-β-estradiol, reference compound] |  |  |  |  |  |  |  | 39 (1) % |  | 56 (2) % | residual metabolism (percentage of control), zidovudine glucuronidation ([3]; inhibitor 50 μM): 50 (1) %; residual metabolism (percentage of control), zidovudine glucuronidation ([3]; inhibitor 100 μM): 28 (1) %
63 (1) % | 64 (3) % | 48 (7) % and 34 (4) % | O=C1C[C@@H](c2ccc(O)cc2)Oc2cc(O)cc(O)c21 [Naringenin] |  |  |  |  |  | 15 (3) % | 34 (2) % |  | 40 (2) % |  | % of control metabolism (SD, n = 3), raloxifene glucuronide G1 ([2]; G1, inhibitor 50 μM, raloxifene 50 μM, human liver microsomes 250 μg/ml, 15 min): 54 (4) %; % of control metabolism (SD, n = 3), raloxifene glucuronide G2 ([2]; G2, inhibitor 50 μM, raloxifene 50 μM, human liver microsomes 250 μg/ml, 15 min): 71 (9) %; residual metabolism (% of control), 2ME2 MG1 ([4]; inhibitor 25 μM): 76 (1) %; residual metabolism (% of control), 2ME2 MG2 ([4]; inhibitor 25 μM): 53 (4) %; residual metabolism (% of control), 2ME2 MG1 ([4]; inhibitor 50 μM): 47 (3) %; residual metabolism (% of control), 2ME2 MG2 ([4]; inhibitor 50 μM): 26 (5) %; residual metabolism (% of control), 2ME2 MG1 ([4]; inhibitor 100 μM): 21 (4) %; residual metabolism (% of control), 2ME2 MG2 ([4]; inhibitor 100 μM): 19 (0) %; residual metabolism (% of control), 2ME2 MG1 ([5]; inhibitor 50 μM): 78 (2) %; residual metabolism (% of control), 2ME2 MG1 ([5]; inhibitor 100 μM): 79 (5) %
25 (1) % |  | 76 (2) % | CC1=C(/C=C/C(C)=C/C=C/C(C)=C/CO)C(C)(C)CCC1 [Retinol] | 59 (1) % | 59 (1) % | 39 (1) % | 39 (1) % | 25 (1) % |  |  |  |  |  | 
75 (0) % | 62 (3) % | 28 (3) % and 25 (0) % | CC(C)=CCC/C(C)=C/CO [Geraniol] |  |  |  |  |  | 9 (1) % |  |  |  |  | residual metabolism (percentage of control), zidovudine glucuronidation ([3]; inhibitor 100 μM): 77 (5) %
49 (2), % and 48 (1) % |  | 68 (7) % | COc1ccc2c(c1)c(CC(=O)O)c(C)n2C(=O)c1ccc(Cl)cc1 [Indomethacin, reference compound] |  | 82 (0) % |  | 73 (1) % |  |  |  |  |  |  | 

Compound | % of control metabolism (SD, n = 3), 7-HFC glucuronidation ([1]; inhibitor 500 μM) | residual metabolism (percentage of control), zidovudine glucuronidation ([3]; inhibitor 200 μM) | residual metabolism (percentage of control), zidovudine glucuronidation ([3]; inhibitor 500 μM) | percentage of control metabolism, 7-HFC glucuronidation ([1]; inhibitor 100 μM) | % of control metabolism (SD, n = 3), 7-HFC glucuronidation ([1]; inhibitor 100 μM) | percentage of control metabolism, 7-HFC glucuronidation ([1]; inhibitor 200 μM) | % of control metabolism (SD, n = 3), 7-HFC glucuronidation ([1]; inhibitor 200 μM) | percentage of control metabolism, 7-HFC glucuronidation ([1]; inhibitor 500 μM) | residual metabolism (percentage of control), zidovudine glucuronidation ([3]; inhibitor 1000 μM) | % of control metabolism (SD, n = 3), raloxifene glucuronide G1 [2, 6] | % of control metabolism (SD, n = 3), raloxifene glucuronide G1 [2, 7] | % of control metabolism (SD, n = 3), raloxifene glucuronide G2 [2, 8] | % of control metabolism (SD, n = 3), raloxifene glucuronide G2 [2, 9] | further results
Cc1ccc(C(C)C)cc1O [Carvacrol] | 31 (1) % | 75 (3) % | 50 (3) % and 45 (0) % | 79 (1) % | 79 (1) % | 63 (0) % | 63 (0) % | 31 (1) % | 20 (1) % |  |  |  |  | % of control metabolism (SD, n = 3), raloxifene glucuronide G1 [2]: 37 (1) % and 64 (1) %; % of control metabolism (SD, n = 3), raloxifene glucuronide G2 [2]: 33 (0) % and 60 (1) %; residual metabolism (percentage of control), zidovudine glucuronidation ([3]; inhibitor 100 μM): 94 (1) %
COc1cc(CNC(=O)CCCCCCC(C)C)ccc1O [Dihydrocapsaicin] | 42 (2) % |  | 50 (1) % | 60 (3) % | 60 (3) % | 52 (2) % | 52 (2) % | 42 (2) % | 42 (2) % | 49 (1) % | 18 (1) % | 68 (2) % | 26 (1) % | 
CCCCCCCCC(=O)NCc1ccc(O)c(OC)c1 [N-Vanillylnonanamide] | 48 (1) % |  | 67 (1) % | 69 (1) % | 69 (1) % | 63 (2) % | 63 (2) % | 48 (1) % | 40 (1) % | 48 (1) % | 14 (1) % | 62 (1) % | 17 (2) % | 
Cc1cc(=O)oc2cc(O)ccc12 [4-Methylumbelliferone, reference compound] | 45 (1), % and 47 (2) % |  | 81 (2) % | 78 (1) % | 78 (1) % | 64 (1) % | 64 (1) % | 45 (1) % and 47 (2) % |  |  |  |  |  | % of control metabolism, raloxifene G1 [2]: 35 (3), 39 (2) % and 37 (1), 40 (1) % and 51 (1), 53 (2) % and 69 (4), 71 (8) %; % of control metabolism, raloxifene G2 [2]: 35 (3), 39 (2) % and 37 (1), 40 (1) % and 51 (1), 53 (2) % and 69 (4), 71 (8) %
COc1cc(CNC(=O)CCCC/C=C/C(C)C)ccc1O [Capsaicin] | 39 (0) % |  | 57 (4) % | 53 (1) % and 57 (0) % | 53 (1), % and 57 (0) % | 42 (1) % and 44 (1) % | 42 (1), % and 44 (1) % | 39 (0) % | 34 (1) % | 55 (4) % | 26 (1) % | 69 (4) % | 33 (3) % | percentage of control metabolism, 7-HFC glucuronidation ([1]; inhibitor 50 μM): 69 (1) %; % of control metabolism (SD, n = 3), 7-HFC glucuronidation ([1]; inhibitor 50 μM): 69 (1) %
